In patent US20180015051A1, “MODULATORS OF ALPHA-DICARBONYL DETOXIFICATION AND THEIR USE FOR THE TREATMENT OF DIABETIC PATHOLOGIES” (Buck Institute for Research on Aging, priority 2016, published 2018):

How the values were obtained:
[1] = mice and humans; Gomes and Negrato (2014); cited from earlier work
C. elegans = test: Swim-bend assay (body bends in liquid media); assay type: in vivo, Caenorhabditis elegans; conditions: N2 animals; 7 mM MGO vs water
DAF-16/FOXO = test: DAF-16::GFP nuclear localization; assay type: in vivo, Caenorhabditis elegans; conditions: 7 mM MGO vs water; heat shock positive control
Description: FIG. 11, panels A-E, SKN-1/Nrf2 activation due to exogenous MGO treatment and specificity of downstream response to a-DC stress. Related to FIG. 3. (A) Quantification (left) and fluorescence microscopy images (right) of GFP foci in gst-4p::gfp animals reared on empty vector (EV, L4440) or skn-1 RNAi supplemented with water (control) or 7 mM MGO. Foci are marked by white arrows. n=91. Scale bar 0.15 mm. […] Animals were categorized as follows: ‘high’ for strong GFP signal throughout the intestine, ‘medium’ for GFP signal in the anterior or posterior section of the intestine and ‘low’ for weak or no signal. n=100. (C) qPCR analysis of SKN-1 target genes, gst-4 and gcs-1 in N2 animals reared on EV or skn-1 RNAi supplemented with water (control, −) or 7 mM MGO (+). The data is normalized to the corresponding expression levels in N2 (EV, water), represented by the dotted line. (D) Fluorescence microscopy images depicting nuclear localization of DAF-16::GFP and SKN-1::GFP supplemented with water (control) or 7 mM MGO. Heat shock was used as a positive control to drive DAF-16 nuclear localization. Red arrows point towards nuclear localized transcription factors (SKN-1 and DAF-16). Scale bar 20 pm. (E) Fluorescence microscopy images to observe GFP foci in glod-4;gst-4p::gfp animals reared on empty vector (EV, L4440), sgk-1, sek-1, or pmk-1 RNAi. Scale bar 20 pm.

native HEK293T cells = test: Calcium imaging of native HEK293T cells (GFP only); assay type: cell-based
Description: (§1) Appropriate HEK293T-derived cells were seeded on collagen-coated glass bottom culture dishes (MatTek Corporation). Cells were loaded with 10 pM of Rhod-3 AM (Life Technology) for 30 min at 37° C. After 30 min they were washed twice with standard Tyrode's solution (135 mM NaCl, 4 mM KCl, 10 mM glucose, 10 mM HEPES, 2 mM CaCl2, and 1 mM MgCl2 at pH=7.4) at room temperature. Calcium imaging was performed on an Olympus BX51WI Axiovert microscope under a 60× objective. Fluorescent images were documented upon sequential excitation with 555 nm followed by 484 nm with a Roper CoolSnap CCD camera. After establishing a baseline 555/484 ratio, methylglyoxal or other agonists were diluted with Tyrode's solution (100 pM or 1 mM final concentration) and were perfused into cells. Images were processed with the MetaFlour (Olympus) software.

GLOD-4/GLO1 = test: Glod-4p::gfp expression assay; assay type: in vivo, Caenorhabditis elegans; conditions: EV, skn-1, or trpa-1 RNAi; MGO (7 mM) vs water
Description: Transgenic adult animals carrying glod-4p::gfp were assayed. Fluorescent intensity was calculated by background subtraction and quantified for the same region of interest across individual animals. All quantification was done using Image J™ software (//imagei.nih.gov/ii/).

TRPA1 (worm) = target: T1, TRPA1 (worm) (Caenorhabditis elegans, UniProt Q18297); test: Calcium imaging of HEK293T cells (Rhod-3 AM), worm TRPA1; assay type: cell-based, C. elegans; conditions: HEK293T transfected with worm TRPA1 and GFP; 100 pM or 1 mM MGO
T1 construct: expressed in transfected cells; host or cells: HEK293T
T1 sequence (Q18297 1-1211): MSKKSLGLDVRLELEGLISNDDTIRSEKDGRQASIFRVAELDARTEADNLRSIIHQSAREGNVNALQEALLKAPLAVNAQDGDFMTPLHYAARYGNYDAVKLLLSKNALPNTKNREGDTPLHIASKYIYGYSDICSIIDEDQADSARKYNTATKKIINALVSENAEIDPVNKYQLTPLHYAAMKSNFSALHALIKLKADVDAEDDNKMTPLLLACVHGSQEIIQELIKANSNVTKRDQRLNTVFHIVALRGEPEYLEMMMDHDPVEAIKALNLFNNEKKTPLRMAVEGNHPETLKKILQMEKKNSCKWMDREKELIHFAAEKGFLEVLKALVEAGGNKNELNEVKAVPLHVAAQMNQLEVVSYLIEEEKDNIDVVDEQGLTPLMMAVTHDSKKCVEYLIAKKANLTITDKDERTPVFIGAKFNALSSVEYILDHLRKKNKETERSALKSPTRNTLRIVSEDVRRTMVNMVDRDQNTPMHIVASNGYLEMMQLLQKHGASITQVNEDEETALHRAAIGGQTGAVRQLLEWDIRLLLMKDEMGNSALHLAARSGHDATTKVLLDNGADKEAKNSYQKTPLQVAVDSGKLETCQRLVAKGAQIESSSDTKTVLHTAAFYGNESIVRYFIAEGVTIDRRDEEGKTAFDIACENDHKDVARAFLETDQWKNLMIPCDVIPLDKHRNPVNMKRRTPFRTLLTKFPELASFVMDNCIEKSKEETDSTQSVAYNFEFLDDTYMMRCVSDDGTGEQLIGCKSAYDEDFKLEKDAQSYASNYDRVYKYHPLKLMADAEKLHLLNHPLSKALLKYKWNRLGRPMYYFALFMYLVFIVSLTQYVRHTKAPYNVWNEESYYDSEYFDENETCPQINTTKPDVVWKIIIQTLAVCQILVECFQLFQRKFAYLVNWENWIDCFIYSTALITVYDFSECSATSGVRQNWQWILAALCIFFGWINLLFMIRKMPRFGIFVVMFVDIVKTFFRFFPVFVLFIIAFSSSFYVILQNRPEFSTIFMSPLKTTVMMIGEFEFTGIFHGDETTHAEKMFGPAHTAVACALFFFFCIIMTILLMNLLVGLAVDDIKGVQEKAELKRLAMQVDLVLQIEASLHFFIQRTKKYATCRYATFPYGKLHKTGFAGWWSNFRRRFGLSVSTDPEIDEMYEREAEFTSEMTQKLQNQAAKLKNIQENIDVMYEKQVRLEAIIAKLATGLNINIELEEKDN
Description: as §1

TRPA1 (RAT) = target: T2, TRPA1 (RAT) (Rattus norvegicus, UniProt Q6RI86); test: Calcium imaging of HEK293T cells (Rhod-3 AM), rat TRPA1; assay type: cell-based; conditions: HEK293T transfected with rat TRPA1 and GFP; 100 pM or 1 mM MGO
T2 construct: expressed in transfected cells; host or cells: HEK293T
T2 sequence (Q6RI86 whole entry): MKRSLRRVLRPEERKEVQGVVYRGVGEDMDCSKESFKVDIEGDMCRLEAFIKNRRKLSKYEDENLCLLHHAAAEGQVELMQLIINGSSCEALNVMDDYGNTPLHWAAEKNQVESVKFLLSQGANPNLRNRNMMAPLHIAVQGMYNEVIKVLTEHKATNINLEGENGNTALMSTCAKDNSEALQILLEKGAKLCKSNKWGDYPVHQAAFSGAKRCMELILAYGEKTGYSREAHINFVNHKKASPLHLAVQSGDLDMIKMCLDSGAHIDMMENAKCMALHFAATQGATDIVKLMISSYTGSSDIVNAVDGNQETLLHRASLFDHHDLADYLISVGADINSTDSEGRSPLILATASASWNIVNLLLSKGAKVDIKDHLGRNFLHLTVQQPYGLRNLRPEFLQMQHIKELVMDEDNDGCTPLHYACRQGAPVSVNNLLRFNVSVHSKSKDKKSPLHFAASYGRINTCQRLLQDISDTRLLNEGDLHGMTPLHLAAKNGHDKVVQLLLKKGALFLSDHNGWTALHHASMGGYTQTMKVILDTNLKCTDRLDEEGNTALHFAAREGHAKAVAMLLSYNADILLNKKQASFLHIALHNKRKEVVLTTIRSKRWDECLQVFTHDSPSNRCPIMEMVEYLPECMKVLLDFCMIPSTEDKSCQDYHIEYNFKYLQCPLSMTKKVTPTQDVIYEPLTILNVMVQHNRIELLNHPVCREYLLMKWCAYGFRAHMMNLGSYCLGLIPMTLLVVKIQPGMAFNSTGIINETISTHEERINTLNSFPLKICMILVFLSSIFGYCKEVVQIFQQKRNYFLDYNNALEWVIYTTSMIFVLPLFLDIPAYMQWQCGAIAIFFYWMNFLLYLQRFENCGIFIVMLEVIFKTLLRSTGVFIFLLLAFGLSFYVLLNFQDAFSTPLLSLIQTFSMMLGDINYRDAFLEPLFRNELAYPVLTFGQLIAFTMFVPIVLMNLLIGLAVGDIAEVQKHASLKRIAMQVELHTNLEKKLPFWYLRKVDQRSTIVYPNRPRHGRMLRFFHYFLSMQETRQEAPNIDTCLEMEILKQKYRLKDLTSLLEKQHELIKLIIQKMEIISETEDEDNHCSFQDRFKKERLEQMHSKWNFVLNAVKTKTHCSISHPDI
Description: as §1

For `O=C(O)CCCCC1CCSS1` (stereo not shown) [LA, a-lipoic acid], which “Effect on diabetic complications” value [1] is on record?
The value was “documented to ameliorate diabetic complications”.

Which results are given for `CC(=O)C=O` [MGO, methylglyoxal]?
Motility (number of body bends in liquid media) (C. elegans): lower motility; DAF-16/FOXO nuclear localization (DAF-16/FOXO): failed to trigger; Ca2+ flux in native HEK293T cells (Rhod-3 AM) (native HEK293T cells): neither compounds resulted in Ca^+2 flux; glod-4p::gfp reporter expression (GFP intensity) (GLOD-4/GLO1): trpa-1- and skn-1 -dependent increase in expression; Ca2+ flux (Rhod-3 AM fluorescence ratio 555/484 nm) (TRPA1 (worm)): induce a similar Ca^2+ flux; Ca2+ flux (Rhod-3 AM fluorescence ratio 555/484 nm) (TRPA1 (RAT)): induce a similar Ca^2+ flux
